Results: EP0005422A2, “Derivatives of omega-dialkylalkanoic acids, processes for their preparation and their therapeutical use” (SANOFI S.A., priority 1978, dated 1979)
≈ marks a conversion by molar mass, not a printed value. Like-named read-outs stand apart in the source and are kept apart here.

Legend:
[1] = tested on: Crise à l'acide β-mercaptopropionique; assay: β-mercaptopropionic acid seizure test (Crise à l'acide β-mercaptopropionique); assay type: in vivo, souris; settings: for ED50: Mus musculus, po
Description: L'acide p-mercaptopropionique est un inhibiteur de la glutamate décarboxylase (G.A.D.), enzyme qui catalyse la transformation du glutamate en acide y-aminobutyrique (GABA). Son action se traduit donc par un abaissement du taux de GABA et la survenue de crises généralisées tonico-cloniques 3 à 4 minutes après son administration.
L'acide β-mercaptopropionique a été administré à des lots de 10 souris mâles, par voie intrapéritonéale, à la dose de 70 mg/kg, 30 minutes après l'administration orale d'une dose du composé à étudier. On note le pourcentage des animaux protégés contre la crise tonique 15 minutes après l'administration de l'acide β-mercaptopropionique.

Crise pentétrazolique = assay: Pentetrazol seizure test (Crise pentétrazolique); assay type: in vivo, souris; settings: mice, 15 minutes after administration of pentetrazol; for ED50: Mus musculus, po, 0.25 h, read-out: DE50 (the source's name)
Description: Ce test, pratiqué sur souris par voie orale, est identique à celui décrit dans le brevet français N° 2.276.036.
Les DE50 obtenues 15 minutes après l'administration du pentécra- zol sont reprises ci-dessous comparativement aux résultats trouvés pour les sels de sodium correspondants : [drawing 12]

[2] = Acute toxicity (toxicité aiguë); assay type: in vivo; settings: mouse, in vivo, po, 1000 mg/kg, mice, 1000 mg/kg oral; read-out: mortalité
Description: (§1) Des tests de toxicité aiguë pratiqués sur souris ont montré qu'à la dose de 1000 mg/kg, par voie orale, la mortalité provoquée par le n-propyl-3 hexanoate de magnésium et le n-propyl-3 hexanamide est respectivement de 40% et 0%.
(§2) A titre de comparaison, le n-propyl-3 hexanoate de sodium à la dose de 1000 mg/kg par voie orale provoque déjà 80% de mortalité.

Anoxie par confinement = assay: Anoxia by confinement (Anoxie par confinement); assay type: in vivo, souris; settings: for % d'augmentation du temps de survie: male mice, 75 mg/kg intraperitoneal, versus controls
Description: Des lots de 15 souris mâles sont traités au moyen d'une dose de composé à étudier puis chaque animal est placé dans une enceinte hermétiquement close de 200 cm^3. L'animal est considéré comme mort au moment de l'arrêt respiratoire.
On détermine alors le % d'augmentation du temps de survie par rapport à des témoins.
On trouvera ci-dessous des résultats obtenus avec des composés de l'invention à la dose de 75 mg/kg par voie intrapéritonéale : [drawing 14]

[3] = Solubility and pH of aqueous solution; assay type: physicochemical; settings: for solubility: water
souris = assay: Acute toxicity (toxicité aiguë); assay type: in vivo; settings: mice, 1000 mg/kg oral
Description: as §1, §2

[4] = tested on: activité anticonvulsivante; assay: Pharmacological studies of anticonvulsant activity (method not specified); assay type: in vivo; settings: at identical doses, compared with di-n-propylacétate de sodium
[5] = male mice, compound oral 30 minutes before β-mercaptopropionic acid 70 mg/kg i.p., protection against tonic seizure 15 minutes after, read-out: DE50 (the source's name)
[6] = male mice, compound oral 30 minutes before β-mercaptopropionic acid 70 mg/kg i.p., protection against tonic seizure 15 minutes after

| Compound | ED50 [1, 5] [mg/kg] | ED50 (Crise pentétrazolique) [mg/kg] | % d'augmentation du temps de survie (Anoxie par confinement) [%] | also measured |
| --- | --- | --- | --- | --- |
| CCCC(CCC)CC(N)=O [Y=NH2, n=0, n-propyl-3 hexanamide] | 106 | 65 |  | mortality [2]: 0% |
| CCCC(CCC)CCC(N)=O [Y=NH2, n=1, n-propyl-4 heptanamide] |  | 104 | 15 |  |
| CCCC(CCC)CCCC(N)=O [Y=NH2, n=2, n-propyl-5 octanamide] | 129 | 121 | 64 |  |
| CCCC(CCC)CCC(=O)O [Y=OCa1/2, n=1, n-propyl-4 heptanoate de calcium] |  |  | 27 | DE50 [1, 6]: 101 mg/kg; solubility ([3]; dissolves very slowly, read-out: se dissout dans l'eau): 1000 mg/mL |
| CCCC(CCC)CC(=O)O [Y=OMg1/2, n=0, n-propyl-3 hexanoate de magnésium] |  |  | 36 | DE50 [1, 6]: 145 mg/kg; mortalité (souris): 40%; pH ([3]; 2% aqueous solution, slightly opalescent): 9,4 |
| CCCC(CCC)CCCC(=O)O [Y=OMg1/2, n=2, n-Propyl-5 octanoate de magnésium] |  |  | 56 | DE50 [1, 6]: 124 mg/kg; DE50 (Crise pentétrazolique; oral route, 15 min): 152 mg/kg; solubilité dans les solvants organiques ([3]; organic solvents): Bonne solubilité; solubility ([3]; read-out: Solubilité dans l'eau): 1 mg/mL (≈ 5.37 mM) |
| CCCC(CCC)CC(=O)O [Y=ONa, n=0, n-propyl-3 hexanoate de sodium, reference compound] | 168 | 95 |  | mortalité (souris): 80% |
| CCCC(CCC)CCC(=O)O [Y=ONa, n=1, reference compound] | 124 | 119 |  |  |
| CCCC(CCC)CCCC(=O)O [Y=ONa, n=2, reference compound] |  | 172 |  |  |
| CCCC(CCC)C(=O)O [di-n-propylacétate de sodium, reference compound] |  |  |  | ED50 ([1]; read-out: DE50): 175 mg/kg; augmentation du temps de survie (Anoxie par confinement; 200 mg/kg intraperitoneal, comparative test): 32% |
| CCCC(CCC)C(=O)O [sel de calcium] |  |  |  | potentialités anticonvulsivantes [4]: sensiblement équivalentes à celles du di-n-propylacétate de sodium et même légèrement inférieures |
